From patent publication US12427171B2, “Krill oil composition enriched in LPC-DHA and LPC-EPA” (Aker BioMarine Human Ingredients AS, priority 2020, dated 2025)

Assay: Mouse retinal fatty acid composition after daily gavage of free DHA, sn-1 DHA LPC or sn-2 DHA LPC for 30 days (GC/MS)
Type: in vivo
Details: for fatty acid composition of mouse retina, 12:0, Mean ± S.D. / fatty acid composition of mouse retina, 14:0, Mean ± S.D. / fatty acid composition of mouse retina, 16:0, Mean ± S.D. / fatty acid composition of mouse retina, 16:0 DMA, Mean ± S.D. / fatty acid composition of mouse retina, 16:1 (n-7), Mean ± S.D. / fatty acid composition of mouse retina, 17:1 (n-7), Mean ± S.D. / fatty acid composition of mouse retina, 18:0, Mean ± S.D. / fatty acid composition of mouse retina, 18:0 DMA, Mean ± S.D. / fatty acid composition of mouse retina, 18:1(n-7), Mean ± S.D. / fatty acid composition of mouse retina, 18:1 (n-9), Mean ± S.D. / fatty acid composition of mouse retina, 18:1 DMA, Mean ± S.D. / fatty acid composition of mouse retina, 18:2 (n-6), Mean ± S.D. / fatty acid composition of mouse retina, 18:3 (n-3), Mean ± S.D. / fatty acid composition of mouse retina, 18:3 (n-6), Mean ± S.D. / fatty acid composition of mouse retina, 20:0, Mean ± S.D. / fatty acid composition of mouse retina, 20:1 (n-9), Mean ± S.D. / fatty acid composition of mouse retina, 20:2 (n-6), Mean ± S.D. / fatty acid composition of mouse retina, 20:3 (n-6), Mean ± S.D. / fatty acid composition of mouse retina, 20:4 (n-6), Mean ± S.D. / fatty acid composition of mouse retina, 20:5 (n-3), Mean ± S.D. / fatty acid composition of mouse retina, 22:0, Mean ± S.D. / fatty acid composition of mouse retina, 22:2 (n-6), Mean ± S.D. / fatty acid composition of mouse retina, 22:4 (n-6), Mean ± S.D. / fatty acid composition of mouse retina, 22:5 (n-3), Mean ± S.D. / fatty acid composition of mouse retina, 22:6 (n-3), Mean ± S.D. / fatty acid composition of mouse retina, 24:1 (n-9), Mean ± S.D.: 1 mg DHA daily by gavage
Procedure: Normal male mice (C57 BL/J6, 16-week-old) were gavaged daily with 1 mg DHA in the form of free DHA, sn-1 DHA LPC, or sn-2 DHA LPC in 80 μL corn oil for 30 days. Retinal FA composition was analyzed by GC/MS. Only the values for arachidonic acid and the omega-3 FA are shown here (mean±SD, 8 animals/group). […] SD: standard deviation; sn-1 and sn-2: stereospecific numbering 1 and 2 respectively; LPC: lysophosphatidylcholine; DHA: docosahexaenoic acid.
Animals and dietary treatments: All studies in animals described here were approved by the Institutional Animal Care and Use Committee of the University of Illinois at Chicago. The retina samples were obtained from our previous studies on the brain accretion of DHA in mice and rats, which were published previously. Male Sprague-Dawley rats (8-week-old) were purchased from Harlan laboratories (Indianapolis, IN, USA). Male C57 BL/J6 mice (2-4-months-old) were purchased from Jackson Laboratories (Bar Harbor. Maine).
In the first study, male Sprague-Dawley rats (n=5 per group, 8-week-old) were gavaged daily with 10 mg of DHA (40 mg DHA/kg body weight) in the form of TAG-DHA (DHASCO algal oil, DSM Nutritional Products, Columbia, MD, USA), synthetic di-DHA PC (phosphatidylcholine), or synthetic LPC-DHA (sn-1 acyl) for 30 days. The DHA was distributed equally among the three positions of TAG-DHA [17]. […] In the second study, 4-month-old male C57 BL/J6 mice (n=8 per group) were gavaged daily with 40 mg DHA/kg body weight in the form of free (unesterified) DHA, sn-1 acyl LPC-DHA, or sn-2 acyl LPC-DHA for 30 days as described previously. In the third study, male C57 BL/J6 mice (2-months-old, n=5 per group) were fed diets enriched with natural or lipase-treated fish oil or hill oil for 30 days. The total amount of omega-3 FA (eicosapentaenoic acid (EPA)+DHA) was 2.64 g/kg diet in all the diets. The untreated hill oil contained 18% of total omega-3 FA as LPC, whereas the lipase-treated hill oil contained >80% of the total omega-3 FA as LPC. The fish oil diets contained no LPC-EPA or LPC-DHA. The animals were trans-cardially perfused with ice cold phosphate buffered saline under anesthesia and the retinas were collected and kept frozen at −80° C. until the analysis.
Analytical procedures: The total lipids of retina were extracted by Bligh and Dyer procedure and the fatty acids were methylated using methanolic HCl. The fatty acid analysis was carried out by GC/MS (gas chromatography/mass spectroscopy) using Shimadzu QP2010SE equipped with Supelco Omegawax column, as described previously. Total ion current in the range of 50-400 m/z was used for quantification of the methyl esters. For LC/MS/MS (liquid chromatography/tandem mass spectroscopy) analysis, the lipids were extracted by the procedure of Ivanova et al.. The analysis of molecular species of phospholipids was performed on an ABSciex QTRAP mass spectrometer (Redwood City, CA, USA) coupled with Agilent 2600 UPLC system (Santa Clara, CA, USA), by multiple reaction monitoring. The internal standards 17:0 LPC, di 17:0 PC, and di 17:0 PE (phosphatidylethanolamine) were used for the quantification of the corresponding molecular species, without applying any correction factors for the differences in the ion intensity of different molecular species.
Statistics and correlations: The significance of differences between treatment groups was determined by a one-way ANOVA, with Tukey post-hoc multiple comparison corrections or unpaired t-test between control and treated samples adjusted with Holm-Sidak method (Graphpad Prism 8.0, San Diego, CA, USA).

SMILES | fatty acid composition of mouse retina, 12:0, Mean ± S.D. | fatty acid composition of mouse retina, 14:0, Mean ± S.D. | fatty acid composition of mouse retina, 16:0, Mean ± S.D. | fatty acid composition of mouse retina, 16:0 DMA, Mean ± S.D. | fatty acid composition of mouse retina, 16:1 (n-7), Mean ± S.D. | fatty acid composition of mouse retina, 17:1 (n-7), Mean ± S.D. | fatty acid composition of mouse retina, 18:0, Mean ± S.D. | fatty acid composition of mouse retina, 18:0 DMA, Mean ± S.D. | fatty acid composition of mouse retina, 18:1(n-7), Mean ± S.D. | fatty acid composition of mouse retina, 18:1 (n-9), Mean ± S.D. | fatty acid composition of mouse retina, 18:1 DMA, Mean ± S.D. | fatty acid composition of mouse retina, 18:2 (n-6), Mean ± S.D. | fatty acid composition of mouse retina, 18:3 (n-3), Mean ± S.D. | fatty acid composition of mouse retina, 18:3 (n-6), Mean ± S.D. | fatty acid composition of mouse retina, 20:0, Mean ± S.D. | fatty acid composition of mouse retina, 20:1 (n-9), Mean ± S.D. | fatty acid composition of mouse retina, 20:2 (n-6), Mean ± S.D. | fatty acid composition of mouse retina, 20:3 (n-6), Mean ± S.D. | fatty acid composition of mouse retina, 20:4 (n-6), Mean ± S.D. | fatty acid composition of mouse retina, 20:5 (n-3), Mean ± S.D. | other results
CC/C=C\C/C=C\C/C=C\C/C=C\C/C=C\C/C=C\CCC(=O)O[C@H](CO)COP(=O)([O-])OCC[N+](C)(C)C [sn-2 DHA LPC] | 0.73 ± 0.47 | 0.30 ± 0.17 | 14.62 ± 1.22 | 1.02 ± 0.32 | 0.47 ± 0.34 | 0.48 ± 0.38 | 15.44 ± 1.50 | 1.96 ± 0.30 | 3.82 ± 0.62 | 15.56 ± 1.16 | 0.78 ± 0.64 | 1.38 ± 0.49 | 0.51 ± 0.42 | 0.60 ± 0.47 | 1.18 ± 0.72 | 2.87 ± 0.60 | 0.88 ± 0.95 | 1.44 ± 0.35 | 5.75 ± 0.71 | 1.91 ± 1.40 | fatty acid composition of mouse retina, 22:0, Mean ± S.D.: 1.24 ± 0.95; fatty acid composition of mouse retina, 22:2 (n-6), Mean ± S.D.: 1.00 ± 0.76; fatty acid composition of mouse retina, 22:4 (n-6), Mean ± S.D.: 2.23 ± 0.87; fatty acid composition of mouse retina, 22:5 (n-3), Mean ± S.D.: 0.79 ± 0.76; fatty acid composition of mouse retina, 22:6 (n-3), Mean ± S.D.: 22.57 ± 3.12; fatty acid composition of mouse retina, 24:1 (n-9), Mean ± S.D.: 0.49 ± 0.17
CC/C=C\C/C=C\C/C=C\C/C=C\C/C=C\C/C=C\CCC(=O)O [Free DHA, docosahexaenoic acid] | 0.60 ± 0.35 | 0.20 ± 0.17 | 16.11 ± 1.56 | 0.75 ± 0.56 | 0.55 ± 0.28 | 0.43 ± 0.16 | 17.32 ± 0.66 | 2.10 ± 0.88 | 4.18 ± 0.34 | 17.14 ± 0.78 | 0.85 ± 0.56 | 0.99 ± 0.65 | 0.49 ± 0.15 | 0.49 ± 0.36 | 1.90 ± 0.64 | 3.42 ± 0.59 | 0.71 ± 0.50 | 1.30 ± 0.66 | 7.42 ± 0.72 | 2.03 ± 1.21 | fatty acid composition of mouse retina, 22:0, Mean ± S.D.: 1.08 ± 0.59; fatty acid composition of mouse retina, 22:2 (n-6), Mean ± S.D.: 0.77 ± 0.51; fatty acid composition of mouse retina, 22:4 (n-6), Mean ± S.D.: 2.51 ± 0.85; fatty acid composition of mouse retina, 22:5 (n-3), Mean ± S.D.: 0.42 ± 0.15; fatty acid composition of mouse retina, 22:6 (n-3), Mean ± S.D.: 15.74 ± 1.57; fatty acid composition of mouse retina, 24:1 (n-9), Mean ± S.D.: 0.51 ± 0.25; effect on retinal DHA (mice, 1 mg DHA daily): no effect
